The target in assay [1] is A1061 23S rRNA MS screening construct. Description: Mass-spec binding assay (SAR by MS, ESI-FTICR-MS). Also noted: species or system E. coli. How it is done:
Binding affinity of test compounds to a 58 nucleotide fragment of E. coli 23S ribosomal RNA (23S rRNA) was determined using electrospray ionization Fourier transform ion cyclotron resonance mass spectrometry (ESI-FTICR-MS). The structure of the 23S rRNA fragment and its preparation is described by Conn et al (Science, 1999, 284(5417):1171) and Hinck et al (J. Mol. Biol., 1997, 274(1):101) both incorporated herein by reference. The mass spec assay determined the exact chemical composition of ligands that bound to the target rRNA and determined relative or absolute dissociation (KD) of ligands for the target. In the first step of the assay, a mixture of 23S rRNA target and test compound were moved from solution into the gas phase by electrospray ionization. The FT-ICR mass spectrometer served as a parallel set of “scales”, simultaneously measuring the exact molecular masses of the small molecules that bound to the RNA with great accuracy. The mass measurement error for an RNA-ligand complex weighing 10 kDa equals the mass of an electron. At this level of mass accuracy, each compound in the mixture was “labeled” by its molecular formula and exact molecular mass. […]

Assay [2] relates to E. coli S30 bacterial extract (protein synthesis). It is filed as biochemical. As to the method:
Coupled Bacterial Transcription/Translation Assay. The DNA template, pBestLuc™ (Promega), is a plasmid containing a reporter gene for firefly luciferase fused to a strong tac promoter and ribosome binding site. Messenger RNA from 1 μg pBestLuc was transcribed and translated in E. coli S30 bacterial extract in the presence or absence of test compound. Compounds were tested in a black 96 well microtiter plate with an assay volume of 35 μL. Each test well contained: 5 μL test compound, 13 μL S30 premix (Promega), 4 μL 10× complete amino acid mix (1 mM each), 5 μL E. coli S30 extract and 8 μL of […] pBestLuc™. The transcription/translation reaction was incubated for 35 minutes at 37° C. followed by detection of functional luciferase with the addition of 30 μL LucLite™ (Packard). Light output was quantitated on a Packard TopCount.

Another assay deals with K pneumoniae ATCC 13383. Put plainly: MIC, Klebsiella pneumoniae. It is filed as cell-based. As to the method:
(§1) Bacterial Strains. The Streptococcus pyogenes strains, Klebsiella pneumoniae, Escherichia coli, Staphylococcus aureus, Enterococcus faecalis used in the antibacterial activity studies ATCC 14289, 49399, 13883, 25922, 13709, 29212, respectively, are obtained from the American Type Culture Collection, Rockville, Md. The strain E. coli imp— is a mutant strain of wild type E. coli with increased outer membrane permeability and was grown in LB broth at 37 °C. S. pyogenes strain is grown in Todd-Hewitt broth. S. aureus is grown in trypticase soy broth, E. faecalis in Todd-Hewitt broth, wild type E. coli and K. pneumoniae, in nutrient broth.
(§2) Determination of Minimum Inhibitory Concentrations (MICs). The assays were carried out in […] volume in duplicate in 96-well clear flat-bottom plates. The bacterial suspension from an overnight culture growth in appropriate medium was added to a solution of test compound in 4% DMSO in water. Final bacterial inoculum was approximately 10^5-10^6 CFU/well. The percent growth of the bacteria in test wells relative to that observed for a well containing no compound was determined by measuring absorbance at 595 nm (A595) after 24 h. […] Both ampicillin and tetracycline is used as antibiotic-positive controls in each screening assay for S. pyogenes, E. coli imp-, E. coli, S. aureus, E. faecalis, K pneumoniae and P. vulgaris. […]

For assay [3], the system named is eukaryotic protein synthesis. Put plainly: Eukaryotic protein synthesis, cell-free assay. It counts as biochemical. Particulars: at 200:M. The source says: The biphenyl substitution improves in vitro antibacterial […] 4-fold compared to the phenyl substitution (34 versus 26). […] Biaryl 34 was selected to be evaluated against some additional bacterial strains. […] See Kung, P.-P.; Casper, M. D.; Cook, K. L.; Wilson-Lingardo, L.; Risen, L. M.; Vickers, T. A.; Ranken, R.; Blyn, L. B.; Wyatt, J. R.; Cook, P. D.; Ecker, D. J. J. Med. Chem. 1999, 42, 4705-4713.

For the next assay, the system named is S. aureus ATCC 13709. Put plainly: Minimum inhibitory concentration (MIC), S. aureus. It counts as cell-based, Staphylococcus aureus. How it is done:
as §1
(§3) Determination of Minimum Inhibitory Concentrations (MICs). The assays were carried out in […] volume in duplicate in 96-well clear flat-bottom plates. The bacterial suspension from an overnight culture growth in appropriate medium was added to a solution of test compound in 4% DMSO in water. Final bacterial inoculum was approximately 10^5-10^6 CFU/well. The percent growth of the bacteria in test wells relative to that observed for a well containing no compound was determined by measuring absorbance at 595 nm (A595) after 24 h. […] Both ampicillin and tetracycline is used as antibiotic-positive controls in each screening assay for S. pyogenes, E. coli imp-, E. coli, S. aureus, E. faecalis, K pneumoniae and P. vulgaris. Ciprofloxacin is used as an antibiotic positive control in each screening assay for P. aeruginosa.

In a further assay the test system is E. faecalis ATCC 29212. Put plainly: MIC, Enterococcus faecalis. It is filed as cell-based. How it is done: as §1, §2
In a further assay the test system is P. vulgaris ATCC 8427. Put plainly: MIC, Proteus vulgaris. It counts as cell-based. How it is done:
as §3

For assay [4], the system named is methicillin resistant S. aureus ATCC43300. Description: MIC, methicillin-resistant S. aureus. It counts as cell-based, Staphylococcus aureus. As to the method:
as §3

For another assay, the system named is S. pyogenes ATCC 49399. Description: MIC, Streptococcus pyogenes. It counts as cell-based. How it is done:
as §1, §2

The next assay has as its system E. coli ATCC 25922. Description: Minimum inhibitory concentration (MIC), E. coli. It counts as cell-based, Escherichia coli. How it is done:
as §1, §3

≈ marks a conversion by molar mass, not a printed value.

What is called Kd is the free concentration of one partner at which half of the binding sites on the other are occupied at equilibrium, for simple one-to-one binding. High values mean a looser complex, low ones a tighter complex. The MIC is the smallest concentration in the dilution series that meets the test's criterion for growth inhibition.

For the compound `NCC[C@@H](NC(=O)c1ccco1)C(=O)N1CCNCC1`, in [1], the Kd came to 50 µM.
As to `CN(C)CCCOc1ccc(C(NC(=O)c2ccc3[nH]c(=O)c(=O)[nH]c3c2)C(=O)N2CCNCC2)cc1` (stereo not shown) [Compound 22], the “activity in bacterial protein synthesis assay at 200:M” value in [2] (at 200:M) was “inactive”.
For `CN(C)CCCOc1ccc(C(NC(=O)c2ccc(-c3cccc(NC(=O)c4ccc(-c5ccccc5)cc4)c3)o2)C(=O)N2CCNCC2)cc1` (stereo not shown) [Compound 34], in the assay with K pneumoniae ATCC 13383, the “MIC Klebsiella pneumoniae” value is reported as 13-25 :M. For the same compound, the “inhibition of eukaryotic protein synthesis” value in assay [3] is reported as “not to inhibit”. Besides, the “MIC S. aureus” value with S. aureus ATCC 13709 (S. aureus ATCC 13709) is 3-6 :M. For the same compound, the MIC lay within 6 to 13 mM (≈ 4110 to 8920 µg/mL) in the assay on S. aureus ATCC 13709 (Staphylococcus aureus, ATCC13709, 24 h, read-out: MIC (S. aureus)) and 6 to 13 mM (≈ 4110 to 8920 µg/mL) with E. coli ATCC 25922 (Escherichia coli, ATCC25922, 24 h, read-out: MIC (E. coli)). Moreover, the “MIC Enterococcus faecalis” value with E. faecalis ATCC 29212 is 3-6 :M. Further, in the assay with P. vulgaris ATCC 8427, the “MIC Proteus vulgaris” value was 50-100 :M. Moreover, the “fold improvement compared to the phenyl substitution (26)” value in assay [2] (34 versus 26) is recorded as 4 fold. Moreover, in assay [4], the “MIC methicillin-resistant S. aureus strain” value is 13-25 :M. Besides, the “MIC Streptococcus pyogenes” value in the assay on S. pyogenes ATCC 49399 is recorded as 3-6 :M. For the same compound, in the assay with E. coli ATCC 25922 (E. coli ATCC 25922), the “MIC E. coli” value is recorded as 6-13 :M.
